Data reported in patent US20230123334A1, “AMINO LIPID COMPOUND, PREPARATION METHOD THEREFOR, AND APPLICATION THEREOF” (SHENZHEN SHENXIN BIOTECHNOLOGY CO., LTD., priority 2020, published 2023).

Tested on: HEK293 cells
Assay: Preliminary screening as DNA vectors, GFP transfection of HEK293 cells
Assay type: cell-based
Settings: amino lipid/DOPE liposome with 75 ng plasmid DNA (psin-EGFP-IRES-Puro); number of GFP-expressing cells divided by total nuclei (Hoechst)
Procedure, shortened: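 Lipid + DOPE liposomes (NaOAc, pH 5.6) complexed w/ 75 ng psin-EGFP-IRES-Puro, 30 min RT; added to 3-5×10^4 HEK293/well, 37° C. Hoechst 0.2 μg/mL at 20-24 h, imaged after further 20-24 h. Efficiency = GFP+ cells / total nuclei.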

Point of comparison: CCCCCCCCCCCCCCCCCCNc1nc(NCCCN(C)C)nc(SCCCCCCCCCCC)n1 [S11N18 D6], “Absolute DNA transfection efficiency in HEK293 cells” value 21.7%. Against it:
- CCCCCCCCCCCCCCCCNc1nc(NCCN(CC)CC)nc(SCCCCCCCCCCC)n1 [S11N16 D7] — lower, 1.7%
- CCCCCCCCCCCCCCCCNc1nc(NCCCN2CCOCC2)nc(SCCCCCCCCCCC)n1 [S11N16 D8] — lower, 0.4%
- CCCCCCCCCCCCCCCCNc1nc(NCCCN2CCN(C)CC2)nc(SCCCCCCCCCCC)n1 [S11N16 D9] — lower, 6.6%
- CCCCCCCCCCCCCCCCNc1nc(NCC2CCN(C)CC2)nc(SCCCCCCCCCCC)n1 [S11N16 D10] — lower, 3.9%
- CCCCCCCCCCCCCCCCCCNc1nc(NCCN(C)C)nc(SCCCCCCCCCCC)n1 [S11N18 D1] — lower, 13.8%
- CCCCCCCCCCCCCCCCCCNc1nc(NCCN2CCOCC2)nc(SCCCCCCCCCCC)n1 [S11N18 D2] — lower, 2.8%
- CCCCCCCCCCCCCCCCCCNc1nc(NCCN2CCCC2)nc(SCCCCCCCCCCC)n1 [S11N18 D3] — higher, 32.1%
- CCCCCCCCCCCCCCCCCCNc1nc(NCCN2CCCCC2)nc(SCCCCCCCCCCC)n1 [S11N18 D4] — lower, 4.4%
- CCCCCCCCCCCCCCCCCCNc1nc(NCCN2CCN(C)CC2)nc(SCCCCCCCCCCC)n1 [S11N18 D5] — lower, 9.3%
- CCCCCCCCCCCCCCCCCCNc1nc(NCCN(CC)CC)nc(SCCCCCCCCCCC)n1 [S11N18 D7] — lower, 3.4%
- CCCCCCCCCCCCCCCCCCNc1nc(NCCCN2CCOCC2)nc(SCCCCCCCCCCC)n1 [S11N18 D8] — lower, 4.4%
- CCCCCCCCCCCCCCCCCCNc1nc(NCCCN2CCN(C)CC2)nc(SCCCCCCCCCCC)n1 [S11N18 D9] — lower, 9.3%
- CCCCCCCCCCCCCCCCCCNc1nc(NCC2CCN(C)CC2)nc(SCCCCCCCCCCC)n1 [S11N18 D10] — lower, 5.7%
- CCCCCCCCCCCCN(CCCCCCCCCCCC)c1nc(NCCN(C)C)nc(SCCCCCCCCCCC)n1 [S11^2N12 D1] — lower, 0.0%
- CCCCCCCCCCCCN(CCCCCCCCCCCC)c1nc(NCCN2CCOCC2)nc(SCCCCCCCCCCC)n1 [S11^2N12 D2] — lower, 0.0%
- CCCCCCCCCCCCN(CCCCCCCCCCCC)c1nc(NCCN2CCCC2)nc(SCCCCCCCCCCC)n1 [S11^2N12 D3] — lower, 0.0%
- CCCCCCCCCCCCN(CCCCCCCCCCCC)c1nc(NCCN2CCCCC2)nc(SCCCCCCCCCCC)n1 [S11^2N12 D4] — lower, 0.0%
- CCCCCCCCCCCCN(CCCCCCCCCCCC)c1nc(NCCN2CCN(C)CC2)nc(SCCCCCCCCCCC)n1 [S11^2N12 D5] — lower, 0.1%
- CCCCCCCCCCCCN(CCCCCCCCCCCC)c1nc(NCCCN(C)C)nc(SCCCCCCCCCCC)n1 [S11^2N12 D6] — lower, 0.3%
- CCCCCCCCCCCCN(CCCCCCCCCCCC)c1nc(NCCN(CC)CC)nc(SCCCCCCCCCCC)n1 [S11^2N12 D7] — lower, 0.1%
- CCCCCCCCCCCCN(CCCCCCCCCCCC)c1nc(NCCCN2CCOCC2)nc(SCCCCCCCCCCC)n1 [S11^2N12 D8] — lower, 0.0%
- CCCCCCCCCCCCN(CCCCCCCCCCCC)c1nc(NCCCN2CCN(C)CC2)nc(SCCCCCCCCCCC)n1 [S11^2N12 D9] — lower, 0.0%
- CCCCCCCCCCCCN(CCCCCCCCCCCC)c1nc(NCC2CCN(C)CC2)nc(SCCCCCCCCCCC)n1 [S11^2N12 D10] — lower, 0.0%
- CCCCCCCCCCCCSc1nc(NCCCCCC)nc(NCCN(C)C)n1 [S12N6 D1] — lower, 0.3%
- CCCCCCCCCCCCSc1nc(NCCCCCC)nc(NCCN2CCOCC2)n1 [S12N6 D2] — lower, 0.1%
- CCCCCCCCCCCCSc1nc(NCCCCCC)nc(NCCN2CCCC2)n1 [S12N6 D3] — lower, 0.0%
